Holding throughout (format): in vivo
Test [1] concerns Paddy. Put plainly: Percentage of protein in grain, field trial on Paddy. As to conditions: area 10-meter square, 1 gm/liter foliar application. An excerpt:
Example 11: Percentage of Protein in Grain
(§1) Field trail results on Paddy—Area 10-meter square 1 gm/liter Foliar Application

Test [2] concerns Paddy. Put plainly: Total protein content in percentage in grain, field trial on Paddy. As to conditions: area 10-meter square, lgm/liter foliar application. An excerpt:
Example 12: Methionin with Plant Growth Hormone—Total Protein Content in Percentage in Grain
Field trail results on Paddy—Area 10-meter square lgm/liter Foliar Application

The test system of test [3] is Paddy. Nature of the test: Micronutrient analysis in grain, field trial on Paddy. As to conditions: area 10-meter square, 1 gm/liter foliar application.
From the text: Example 9: Micronutrient Analysis in Grain
as §1

As for `CNC(=O)NC` [Dimethyl urea], the “% of Protein” value in the test on Paddy [1] is given as 0.0081%.
Same read-out and setting: to `O=C(Nc1ccccc1)Nc1ccccc1` [Diphenyl urea] belongs 0.0089%.
Turning to `C=C1C[C@]23C[C@@]1(O)CC[C@H]2[C@@]12C=C[C@H](O)[C@@](C)(C(=O)O1)[C@H]2[C@@H]3C(=O)O` [Gibberellic acid], in the test with Paddy [2], the “Total Protein content in %” value is 0.084%.
As for `COc1ccc2[nH]cc(CCNC(C)=O)c2c1` [Melatonin], in the test with Paddy [3], the “B (Boron)” value was found to be 40.30 ppm, the “Ca (Calcium)” value is given as 375.00 ppm, the “Fe (Iron)” value stood at 300.00 ppm and the “Mg (Magnesium)” value amounted to 609.00 ppm. Further, in the test on Paddy [3], the “Mn (Manganese)” value worked out at 45.00 ppm and the “Zn (Zinc)” value was determined as 36.50 ppm. Also, in the test with Paddy [2], the “Total Protein content in %” value came out at 0.076%.
For `O=CNC(=O)NC=O` [NN DFU, N,N′-Diformyl Urea], the “% of Protein” value in the test on Paddy [1] worked out at 0.0117%.
For `NC(N)=O` [Urea], the “% of Protein” value with Paddy [1] is recorded as 0.0063%.

Source of the values: patent US20240172748A1, “A SYNERGISTIC PLANT GROWTH STIMULANT COMPOSITION COMPRISING MELATONIN AND NITROGENOUS COMPOUNDS FOR IMPROVING PLANT GROWTH AND DECREASING BIOTIC-ABIOTIC STRESSES ON PLANTS” (FERTIS INDIA PVT. LTD., priority 2021, published 2024).
